Experimental data: paper PMC3711437, “Real-time detection of DNA topological changes with a fluorescently labeled cruciform” (Nucleic Acids Research, 2013)

Target: T1, E. coli gyrase holoenzyme (GyrA and GyrB) (Escherichia coli, UniProt P0AES4+P0AES6)
T1 construct: His-tagged GyrA and GyrB expressed separately in E. coli BL21-CodonPlus(DE3)-RIL, tags cleaved with TEV protease, Ni-NTA and S200 purified; used as holoenzyme
Experiment: supercoiling, fluorescent cruciform extrusion, NCC screen
Type: biochemical
Description: supercoiling, fluorescent cruciform extrusion, NCC screen on E. coli gyrase holoenzyme (GyrA and GyrB)

T1 sequence (P0AES4 whole entry, one chain of several): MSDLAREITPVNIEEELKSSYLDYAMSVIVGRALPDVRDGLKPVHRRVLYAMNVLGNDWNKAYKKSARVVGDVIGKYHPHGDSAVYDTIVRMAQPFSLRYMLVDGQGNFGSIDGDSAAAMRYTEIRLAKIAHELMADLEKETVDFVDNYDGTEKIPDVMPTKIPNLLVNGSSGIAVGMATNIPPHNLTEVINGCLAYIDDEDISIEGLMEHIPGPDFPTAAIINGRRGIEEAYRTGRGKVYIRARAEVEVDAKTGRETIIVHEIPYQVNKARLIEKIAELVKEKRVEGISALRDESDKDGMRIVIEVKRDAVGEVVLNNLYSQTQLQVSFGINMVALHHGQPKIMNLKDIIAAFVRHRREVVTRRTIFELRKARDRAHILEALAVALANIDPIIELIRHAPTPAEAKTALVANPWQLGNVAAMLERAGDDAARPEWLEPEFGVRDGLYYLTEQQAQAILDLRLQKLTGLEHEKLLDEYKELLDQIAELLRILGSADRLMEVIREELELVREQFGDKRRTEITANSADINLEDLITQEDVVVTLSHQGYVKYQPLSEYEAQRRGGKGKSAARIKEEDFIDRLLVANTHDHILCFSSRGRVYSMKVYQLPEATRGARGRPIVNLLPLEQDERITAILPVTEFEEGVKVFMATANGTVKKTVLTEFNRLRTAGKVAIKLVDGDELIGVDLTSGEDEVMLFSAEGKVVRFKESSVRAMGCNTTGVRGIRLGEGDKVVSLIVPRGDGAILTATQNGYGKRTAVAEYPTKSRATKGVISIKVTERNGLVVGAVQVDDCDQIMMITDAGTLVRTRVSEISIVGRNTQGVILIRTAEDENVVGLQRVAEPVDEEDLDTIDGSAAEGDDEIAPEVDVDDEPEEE

**Q.** Which inhibition at 50 µM does the source give for `CN1CCN(c2c(F)cc3c(=O)c(C(=O)O)cn4c3c2SCC4)CC1` [Rufloxacin] here?
**A.** The inhibition at 50 µM was 89%.

**Q.** Which inhibition at 50 µM does the source give for `CCn1cc(C(=O)O)c(=O)c2cc(F)c(N3CCN(C)CC3)cc21` [Pefloxacin] here?
**A.** The inhibition at 50 µM was 95%.

**Q.** How did the inhibition at 50 µM turn out when `CCN1CCN(c2cc3c(cc2F)c(=O)c(C(=O)O)cn3C2CC2)CC1` [Enrofloxacin] was run?
**A.** Its inhibition at 50 µM is 67%.

**Q.** How did the inhibition at 50 µM turn out when `NC1CCN(c2nc3c(cc2F)c(=O)c(C(=O)O)cn3-c2ccc(F)cc2F)C1` (stereo not shown) [Tosufloxacin] was run?
**A.** Its inhibition at 50 µM is 96%.
